The source made the active and inactive calls. No cut-off for these calls is given here.
Tests used:
[1] = target: Stromelysin-1 (Homo sapiens) (UniProt P08254); experiment: Inhibition of human MMP3 using Mca-Pro-Leu-Gly-Leu-Dpa-Ala-Arg-NH2 as substrate by spectrophotometry
[2] = target: T1, Macrophage metalloelastase (Homo sapiens, UniProt P39900); experiment: Binding affinity to human MMP12 catalytic domain (98 to 266) by isothermal titration calorimetry
Target sequence in this assay (P39900 whole entry, the tested form may be a part): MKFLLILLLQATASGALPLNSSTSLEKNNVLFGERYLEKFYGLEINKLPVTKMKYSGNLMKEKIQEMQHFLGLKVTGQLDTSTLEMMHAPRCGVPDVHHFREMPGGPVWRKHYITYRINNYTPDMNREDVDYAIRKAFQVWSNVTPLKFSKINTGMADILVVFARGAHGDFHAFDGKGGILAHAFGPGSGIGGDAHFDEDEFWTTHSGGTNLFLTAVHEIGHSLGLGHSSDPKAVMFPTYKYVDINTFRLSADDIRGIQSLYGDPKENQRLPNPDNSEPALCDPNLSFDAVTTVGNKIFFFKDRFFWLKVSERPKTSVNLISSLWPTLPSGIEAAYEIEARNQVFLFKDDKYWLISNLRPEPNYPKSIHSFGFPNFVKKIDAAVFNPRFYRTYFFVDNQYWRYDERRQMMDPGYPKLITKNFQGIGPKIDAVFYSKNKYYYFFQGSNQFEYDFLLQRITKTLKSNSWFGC

[3] = target: T1, Macrophage metalloelastase; experiment: Inhibition of human MMP12 catalytic domain (98 to 266) at pH 6 to 7 by isothermal titration calorimetry
Target sequence in this assay (P39900 106-470 limits assumed): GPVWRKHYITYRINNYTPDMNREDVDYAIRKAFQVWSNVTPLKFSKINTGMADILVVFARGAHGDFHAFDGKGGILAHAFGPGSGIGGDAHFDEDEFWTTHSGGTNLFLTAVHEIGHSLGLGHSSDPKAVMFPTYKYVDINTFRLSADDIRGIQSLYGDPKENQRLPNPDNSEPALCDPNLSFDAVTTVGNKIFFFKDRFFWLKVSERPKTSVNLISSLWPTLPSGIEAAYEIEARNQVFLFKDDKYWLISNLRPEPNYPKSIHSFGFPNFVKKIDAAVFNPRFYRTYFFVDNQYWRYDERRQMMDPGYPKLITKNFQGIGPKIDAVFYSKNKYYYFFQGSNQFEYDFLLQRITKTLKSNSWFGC

[4] = target: Stromelysin-2 (Homo sapiens) (UniProt P09238); experiment: Inhibition of human MMP10 using Mca-Pro-Leu-Gly-Leu-Dpa-Ala-Arg-NH2 as substrate by spectrophotometry
[5] = target: Matrix metalloproteinase-14 (Homo sapiens) (UniProt P50281); experiment: Inhibition of human MMP14 using Mca-Pro-Leu-Gly-Leu-Dpa-Ala-Arg-NH2 as substrate by spectrophotometry
[6] = target: Neutrophil collagenase (Homo sapiens) (UniProt P22894); experiment: Inhibition of human MMP8 catalytic domain (21 to 261) using Mca-Pro-Leu-Gly-Leu-Dpa-Ala-Arg-NH2 as substrate by spectrophotometry
[7] = target: 72 kDa type IV collagenase (Homo sapiens) (UniProt P08253); experiment: Inhibition of human MMP2 using Mca-Pro-Leu-Gly-Leu-Dpa-Ala-Arg-NH2 as substrate by spectrophotometry
[8] = target: Matrix metalloproteinase-9 (Homo sapiens) (UniProt P14780); experiment: Inhibition of human MMP9 using Mca-Pro-Leu-Gly-Leu-Dpa-Ala-Arg-NH2 as substrate by spectrophotometry
[9] = target: Collagenase 3 (Homo sapiens) (UniProt P45452); experiment: Inhibition of human MMP13 prodomain (20 to 272) using Mca-Pro-Leu-Gly-Leu-Dpa-Ala-Arg-NH2 as substrate by spectrophotometry
[10] = target: T1, Macrophage metalloelastase; experiment: Inhibition of human MMP12 catalytic domain (98 to 266) at pH 6.8 by isothermal titration calorimetry
Target sequence in this assay (P39900 whole entry, the tested form may be a part): as the sequence (P39900 whole entry, the tested form may be a part) above

Stromelysin-1 (Homo sapiens), sequence (P08254 100-477 limits assumed): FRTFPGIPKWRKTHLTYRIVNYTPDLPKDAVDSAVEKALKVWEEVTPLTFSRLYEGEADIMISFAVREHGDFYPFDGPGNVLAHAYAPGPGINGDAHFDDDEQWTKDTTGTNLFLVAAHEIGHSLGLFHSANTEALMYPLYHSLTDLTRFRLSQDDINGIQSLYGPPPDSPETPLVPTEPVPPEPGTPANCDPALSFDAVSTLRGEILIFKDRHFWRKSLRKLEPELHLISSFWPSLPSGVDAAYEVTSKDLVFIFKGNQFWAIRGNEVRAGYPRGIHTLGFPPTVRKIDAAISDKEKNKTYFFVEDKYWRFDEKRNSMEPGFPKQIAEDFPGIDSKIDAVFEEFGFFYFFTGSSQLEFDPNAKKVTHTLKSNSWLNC
Stromelysin-2 (Homo sapiens), sequence (P09238 99-476 limits assumed): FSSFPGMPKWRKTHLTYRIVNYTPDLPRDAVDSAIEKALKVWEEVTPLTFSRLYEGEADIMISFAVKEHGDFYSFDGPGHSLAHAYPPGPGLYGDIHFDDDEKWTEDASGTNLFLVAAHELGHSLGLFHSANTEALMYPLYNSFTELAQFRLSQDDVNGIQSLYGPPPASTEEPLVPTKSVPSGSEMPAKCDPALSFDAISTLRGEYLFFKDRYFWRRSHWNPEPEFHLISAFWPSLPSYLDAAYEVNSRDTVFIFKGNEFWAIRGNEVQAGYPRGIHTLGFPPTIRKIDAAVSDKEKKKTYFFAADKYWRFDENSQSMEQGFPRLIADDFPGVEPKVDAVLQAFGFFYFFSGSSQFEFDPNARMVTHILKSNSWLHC
72 kDa type IV collagenase (Homo sapiens), sequence (P08253 110-660 limits assumed): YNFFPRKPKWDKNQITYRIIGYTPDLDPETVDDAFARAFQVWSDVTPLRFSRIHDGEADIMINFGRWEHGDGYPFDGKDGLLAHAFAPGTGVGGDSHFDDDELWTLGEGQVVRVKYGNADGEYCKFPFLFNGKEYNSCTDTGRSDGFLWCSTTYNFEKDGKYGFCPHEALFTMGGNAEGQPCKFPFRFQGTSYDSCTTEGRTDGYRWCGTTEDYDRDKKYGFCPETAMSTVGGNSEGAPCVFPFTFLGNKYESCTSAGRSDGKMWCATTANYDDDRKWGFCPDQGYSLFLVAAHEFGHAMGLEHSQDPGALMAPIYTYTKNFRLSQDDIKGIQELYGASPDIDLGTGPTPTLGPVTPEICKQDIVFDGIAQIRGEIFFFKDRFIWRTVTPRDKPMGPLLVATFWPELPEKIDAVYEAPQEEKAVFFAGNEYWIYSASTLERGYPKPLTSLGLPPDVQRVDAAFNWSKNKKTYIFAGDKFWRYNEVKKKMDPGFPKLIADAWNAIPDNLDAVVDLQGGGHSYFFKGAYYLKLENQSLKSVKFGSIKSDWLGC
Neutrophil collagenase (Homo sapiens), sequence (P22894 101-467 limits assumed): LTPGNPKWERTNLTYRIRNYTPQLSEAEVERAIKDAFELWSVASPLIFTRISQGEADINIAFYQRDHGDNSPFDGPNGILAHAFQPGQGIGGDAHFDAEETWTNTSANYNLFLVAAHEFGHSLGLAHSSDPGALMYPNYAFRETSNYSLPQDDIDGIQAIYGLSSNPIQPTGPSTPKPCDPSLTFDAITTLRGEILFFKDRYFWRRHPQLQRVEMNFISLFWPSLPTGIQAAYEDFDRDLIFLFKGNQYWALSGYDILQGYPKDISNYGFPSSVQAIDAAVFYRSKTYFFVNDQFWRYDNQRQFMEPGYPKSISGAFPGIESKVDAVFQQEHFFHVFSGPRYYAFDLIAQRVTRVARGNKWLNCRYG
Matrix metalloproteinase-9 (Homo sapiens), sequence (P14780 whole entry): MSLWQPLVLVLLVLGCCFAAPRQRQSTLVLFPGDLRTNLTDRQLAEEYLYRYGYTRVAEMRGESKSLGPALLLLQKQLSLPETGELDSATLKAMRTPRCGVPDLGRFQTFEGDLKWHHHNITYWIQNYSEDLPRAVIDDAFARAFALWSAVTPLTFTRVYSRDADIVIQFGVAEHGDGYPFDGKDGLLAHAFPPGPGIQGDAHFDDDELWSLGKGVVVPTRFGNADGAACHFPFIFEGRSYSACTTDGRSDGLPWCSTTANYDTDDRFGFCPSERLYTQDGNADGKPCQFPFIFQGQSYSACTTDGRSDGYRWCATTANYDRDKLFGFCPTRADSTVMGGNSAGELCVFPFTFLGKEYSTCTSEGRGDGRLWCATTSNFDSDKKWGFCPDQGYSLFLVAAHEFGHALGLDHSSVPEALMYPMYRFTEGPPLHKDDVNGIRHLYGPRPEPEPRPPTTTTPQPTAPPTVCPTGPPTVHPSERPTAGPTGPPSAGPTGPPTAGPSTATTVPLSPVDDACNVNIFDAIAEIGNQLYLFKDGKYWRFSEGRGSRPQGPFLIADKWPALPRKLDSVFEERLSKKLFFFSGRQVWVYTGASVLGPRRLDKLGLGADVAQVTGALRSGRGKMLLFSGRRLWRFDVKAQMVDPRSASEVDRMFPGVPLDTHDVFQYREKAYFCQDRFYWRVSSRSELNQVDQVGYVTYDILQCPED

## C[C@H](NC(=O)[C@H](C)NC(=O)[C@H](Cc1cc(-c2ccccc2)no1)CP(=O)(O)c1ccc(Br)cc1)C(N)=O
[1]
  inhibition: Active
[2]
  Ki: 14.7 nM
[3]
  inhibition: Active
[4]
  inhibition: Active

## NC(=O)[C@H](CCC(=O)O)NC(=O)[C@H](CCC(=O)O)NC(=O)[C@H](Cc1cc(-c2ccccc2)no1)CP(=O)(O)c1ccc(Br)cc1
[1]
  inhibition: Active
[5]
  inhibition: Active
[2]
  Ki: 15.5 nM
[6]
  inhibition: Active
[4]
  inhibition: Active
[7]
  inhibition: Active
[8]
  inhibition: Active
[9]
  inhibition: Active

## NC(=O)[C@H](CCC(=O)O)NC(=O)[C@H](CCC(=O)O)NC(=O)[C@H](Cc1cc(-c2ccc(-c3cccc(Cl)c3)cc2)no1)CP(=O)(O)c1ccc(Br)cc1
[1]
  inhibition: Active
[10]
  Ki: 0.24 nM
[3]
  INH: 0.044 nM
[4]
  inhibition: Active

## C[C@H](NC(=O)[C@H](C)NC(=O)[C@H](Cc1cc(-c2ccc(-c3cccc(Cl)c3)cc2)no1)CP(=O)(O)c1ccc(Br)cc1)C(N)=O
[1]
  inhibition: inactive
[5]
  inhibition: inactive
[2]
  Ki: 0.28 nM
[6]
  inhibition: inactive
[4]
  inhibition: Active
[7]
  inhibition: Active
[8]
  inhibition: Active
[9]
  inhibition: inactive

From ChEMBL document CHEMBL2311401, “Molecular determinants of a selective matrix metalloprotease-12 inhibitor: insights from crystallography and thermodynamic studies” (J Med Chem, 2013)
